# Measured values published in the supplement of paper PMC10307832.
# Tests used:
# Experiment in all cases: relative viability (nuclei count vs DMSO), 5 days (fraction); higher = more cells survive
# NCI-H1975 = test system: NCI-H1975
# How it was run: (§1)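 Lung cancer cell lines, seeded in 1536-well plates, were treated the following day by pin tool with a single drug or with five library-drug doses (not always all listed) in √10 steps on top of a fixed anchor-drug dose. Cells were fixed and nuclei stained in one step after 5 days, and nuclei were counted. Relative viability is the nuclei count for treated wells divided by that for vehicle wells, reported as medians of duplicate plates.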
# HOP-62 = test system: HOP-62
# How it was run: as §1
# NCI-H1755 = test system: NCI-H1755
# How it was run: as §1
# NCI-H1915 = test system: NCI-H1915
# How it was run: as §1
# NCI-H2347 = test system: NCI-H2347
# How it was run: as §1
# NCI-H2228 = test system: NCI-H2228
# How it was run: as §1
# NCI-H522 = test system: NCI-H522
# How it was run: as §1
# LOU-NH91 = test system: LOU-NH91
# How it was run: as §1
# RERF-LC-KJ = test system: RERF-LC-KJ
# How it was run: as §1
# NCI-H460 = test system: NCI-H460
# How it was run: as §1
# LC-2-ad = test system: LC-2-ad
# How it was run: as §1
# A-427 = test system: A-427
# How it was run: as §1
# PC-3 [JPC-3] = test system: PC-3 [JPC-3]
# How it was run: as §1
# NCI-H2126 = test system: NCI-H2126
# How it was run: as §1
# LXF-289 = test system: LXF-289
# How it was run: as §1
# SW 1573 = test system: SW 1573
# How it was run: as §1
# HCC-15 = test system: HCC-15
# How it was run: as §1
# NCI-H2342 = test system: NCI-H2342
# How it was run: as §1
# NCI-H1734 = test system: NCI-H1734
# How it was run: as §1
# SK-LU-1 = test system: SK-LU-1
# How it was run: as §1
# NCI-H358 = test system: NCI-H358
# How it was run: as §1
# HCC-78 = test system: HCC-78
# How it was run: as §1
# NCI-H647 = test system: NCI-H647
# How it was run: as §1
compound,measurement,setting,value
COc1cc(N2CCC(C(N)=O)CC2)ccc1Nc1nc(N)c(Cl)c(Nc2ccccc2S(=O)(=O)C(C)C)n1 [HG-5-88-01] + Cc1cc(Nc2cc(N3CCN(C)CC3)nc(Sc3ccc(NC(=O)C4CC4)cc3)n2)n[nH]1 [Tozasertib] (partner 0.1 µM),relative viability,NCI-H1975; first compound 0.04 µM,0.815
same,relative viability,NCI-H1975; first compound 0.1265 µM,0.715
same,relative viability,NCI-H1975; first compound 0.4 µM,0.565
same,relative viability,NCI-H1975; first compound 1.265 µM,0.251
same,relative viability,NCI-H1975; first compound 4 µM,0.143
same,relative viability,HOP-62; first compound 0.04 µM,0.357
same,relative viability,HOP-62; first compound 0.1265 µM,0.359
same,relative viability,HOP-62; first compound 0.4 µM,0.307
same,relative viability,HOP-62; first compound 1.265 µM,0.327
same,relative viability,HOP-62; first compound 4 µM,0.334
same,relative viability,NCI-H1755; first compound 0.04 µM,0.602
same,relative viability,NCI-H1755; first compound 0.1265 µM,0.589
same,relative viability,NCI-H1755; first compound 0.4 µM,0.587
same,relative viability,NCI-H1755; first compound 1.265 µM,0.512
same,relative viability,NCI-H1755; first compound 4 µM,0.495
same,relative viability,NCI-H1915; first compound 0.04 µM,0.402
same,relative viability,NCI-H1915; first compound 0.1265 µM,0.436
same,relative viability,NCI-H1915; first compound 0.4 µM,0.453
same,relative viability,NCI-H1915; first compound 1.265 µM,0.429
same,relative viability,NCI-H1915; first compound 4 µM,0.339
same,relative viability,NCI-H2347; first compound 0.04 µM,0.638
same,relative viability,NCI-H2347; first compound 0.1265 µM,0.563
same,relative viability,NCI-H2347; first compound 0.4 µM,0.743
same,relative viability,NCI-H2347; first compound 1.265 µM,0.392
same,relative viability,NCI-H2347; first compound 4 µM,0.398
same,relative viability,NCI-H2228; first compound 0.04 µM,0.259
same,relative viability,NCI-H2228; first compound 0.1265 µM,0.13
same,relative viability,NCI-H2228; first compound 0.4 µM,0.159
same,relative viability,NCI-H2228; first compound 1.265 µM,0.111
same,relative viability,NCI-H2228; first compound 4 µM,0.133
same,relative viability,NCI-H522; first compound 0.04 µM,0.567
same,relative viability,NCI-H522; first compound 0.1265 µM,0.454
same,relative viability,NCI-H522; first compound 0.4 µM,0.584
same,relative viability,NCI-H522; first compound 1.265 µM,0.57
same,relative viability,NCI-H522; first compound 4 µM,0.454
same,relative viability,LOU-NH91; first compound 0.04 µM,0.657
same,relative viability,LOU-NH91; first compound 0.1265 µM,0.614
same,relative viability,LOU-NH91; first compound 0.4 µM,0.513
same,relative viability,LOU-NH91; first compound 1.265 µM,0.376
same,relative viability,LOU-NH91; first compound 4 µM,0.366
same,relative viability,RERF-LC-KJ; first compound 0.04 µM,0.58
same,relative viability,RERF-LC-KJ; first compound 0.1265 µM,0.509
same,relative viability,RERF-LC-KJ; first compound 0.4 µM,0.436
same,relative viability,RERF-LC-KJ; first compound 1.265 µM,0.373
same,relative viability,RERF-LC-KJ; first compound 4 µM,0.174
same,relative viability,NCI-H460; first compound 0.04 µM,0.722
same,relative viability,NCI-H460; first compound 0.1265 µM,0.423
same,relative viability,NCI-H460; first compound 0.4 µM,0.255
same,relative viability,NCI-H460; first compound 1.265 µM,0.0498
same,relative viability,NCI-H460; first compound 4 µM,0.064
same,relative viability,LC-2-ad; first compound 0.04 µM,0.505
same,relative viability,LC-2-ad; first compound 0.1265 µM,0.517
same,relative viability,LC-2-ad; first compound 0.4 µM,0.579
same,relative viability,LC-2-ad; first compound 1.265 µM,0.299
same,relative viability,LC-2-ad; first compound 4 µM,0.255
same,relative viability,A-427; first compound 0.04 µM,0.193
same,relative viability,A-427; first compound 0.1265 µM,0.208
same,relative viability,A-427; first compound 0.4 µM,0.158
same,relative viability,A-427; first compound 1.265 µM,0.184
same,relative viability,A-427; first compound 4 µM,0.18
same,relative viability,PC-3 [JPC-3]; first compound 0.04 µM,0.954
same,relative viability,PC-3 [JPC-3]; first compound 0.1265 µM,0.825
same,relative viability,PC-3 [JPC-3]; first compound 0.4 µM,0.882
same,relative viability,PC-3 [JPC-3]; first compound 1.265 µM,0.863
same,relative viability,PC-3 [JPC-3]; first compound 4 µM,0.702
same,relative viability,NCI-H2126; first compound 0.04 µM,0.937
same,relative viability,NCI-H2126; first compound 0.1265 µM,0.941
same,relative viability,NCI-H2126; first compound 0.4 µM,0.849
same,relative viability,NCI-H2126; first compound 1.265 µM,0.467
same,relative viability,NCI-H2126; first compound 4 µM,0.487
same,relative viability,LXF-289; first compound 0.04 µM,0.156
same,relative viability,LXF-289; first compound 0.1265 µM,0.179
same,relative viability,LXF-289; first compound 0.4 µM,0.185
same,relative viability,LXF-289; first compound 1.265 µM,0.196
same,relative viability,LXF-289; first compound 4 µM,0.0786
same,relative viability,SW 1573; first compound 0.04 µM,0.169
same,relative viability,SW 1573; first compound 0.1265 µM,0.128
same,relative viability,SW 1573; first compound 0.4 µM,0.166
same,relative viability,SW 1573; first compound 1.265 µM,0.157
same,relative viability,SW 1573; first compound 4 µM,0.162
same,relative viability,HCC-15; first compound 0.04 µM,0.383
same,relative viability,HCC-15; first compound 0.1265 µM,0.368
same,relative viability,HCC-15; first compound 0.4 µM,0.373
same,relative viability,HCC-15; first compound 1.265 µM,0.107
same,relative viability,HCC-15; first compound 4 µM,0.159
same,relative viability,NCI-H2342; first compound 0.04 µM,0.563
same,relative viability,NCI-H2342; first compound 0.1265 µM,0.547
same,relative viability,NCI-H2342; first compound 0.4 µM,0.574
same,relative viability,NCI-H2342; first compound 1.265 µM,0.273
same,relative viability,NCI-H2342; first compound 4 µM,0.443
same,relative viability,NCI-H1734; first compound 0.04 µM,0.267
same,relative viability,NCI-H1734; first compound 0.1265 µM,0.235
same,relative viability,NCI-H1734; first compound 0.4 µM,0.225
same,relative viability,NCI-H1734; first compound 1.265 µM,0.243
same,relative viability,NCI-H1734; first compound 4 µM,0.27
same,relative viability,SK-LU-1; first compound 0.04 µM,0.337
same,relative viability,SK-LU-1; first compound 0.1265 µM,0.311
same,relative viability,SK-LU-1; first compound 0.4 µM,0.298
same,relative viability,SK-LU-1; first compound 1.265 µM,0.228
same,relative viability,SK-LU-1; first compound 4 µM,0.189
same,relative viability,NCI-H358; first compound 0.04 µM,0.107
same,relative viability,NCI-H358; first compound 0.1265 µM,0.0991
same,relative viability,NCI-H358; first compound 0.4 µM,0.0776
same,relative viability,NCI-H358; first compound 1.265 µM,0.0713
same,relative viability,NCI-H358; first compound 4 µM,0.0702
same,relative viability,HCC-78; first compound 0.04 µM,0.428
same,relative viability,HCC-78; first compound 0.1265 µM,0.315
same,relative viability,HCC-78; first compound 0.4 µM,0.424
same,relative viability,HCC-78; first compound 1.265 µM,0.231
same,relative viability,HCC-78; first compound 4 µM,0.279
same,relative viability,NCI-H647; first compound 0.04 µM,0.236
same,relative viability,NCI-H647; first compound 0.1265 µM,0.403
same,relative viability,NCI-H647; first compound 0.4 µM,0.309
same,relative viability,NCI-H647; first compound 1.265 µM,0.203
same,relative viability,NCI-H647; first compound 4 µM,0.216
